Measurements taken from ChEMBL document CHEMBL3507680, “University of Dundee, Gates Library screen for HepG2 cell viability”.

Experiment: Human HepG2 cell viability assay in 384 well format
Type: toxicity, cell-based
Set-up: dose 125 nL, time 70.5 hour; concentration not given beside the values
Settings: HepG2 cells, read-out: Inhibition

| Compound | cytotoxicity at 70.5 h |
| --- | --- |
| CN(C)CCOc1cccc(CN2CCCC3(C2)CN(C)C(=O)O3)c1 (configuration not stated) | 26% |
| COc1ccc(-c2cc(C3CCOC3)c(C#N)c(N)n2)cn1 (configuration not stated) | 18.9% |
| CC(C)C(O)CNC(=O)Nc1ccc(F)c(Cl)c1 (configuration not stated) | -0.302% |
| CN(C)C(C)(C)CNC(=O)C(C)(C)c1ccccc1F | 4.83% |
| CCc1ccc(CNC(=O)CCc2nnc(-c3ccc(C)s3)o2)nc1 | -3.31% |
| Cc1cccc(C(=O)NC(CN2CCCC2=O)c2ccccc2)n1 (configuration not stated) | 0.515% |
| COc1ccc(F)c(-c2cc(C)nc(N)n2)c1 | -7.05% |
| O=C1CCNc2ccc(F)cc2CN1Cc1ccccc1 | 2.31% |
| CC(C)CC(=O)NS(=O)(=O)c1ccc(C#N)cc1C(F)(F)F | -3.13% |
| CCc1cnc(C)nc1NC1CC(=O)N(CC)C1 (configuration not stated) | -7.16% |
| CC(=O)NCCNC(=O)c1sc(-c2ccc(Cl)cc2)nc1C | -4.15% |
| Cc1cc(CC(=O)NC2CCCN(Cc3ccccc3)C2=O)n[nH]1 (configuration not stated) | -21.2% |
| Cn1cc(-c2csc(N3CCCCCC3)n2)cn1 | -1.01% |
| O=C(Nc1nc(-c2ccccc2)ns1)N1CCC(F)CC1 | -3.26% |
| CCN(CC)c1ccc(CNC(=O)N2CCC(C#N)CC2)cc1 | -14.6% |
| CN(C)Cc1cccc(-c2cccnc2C(=O)NCc2cn(C)cn2)c1 | -1.14% |
| Cc1cnn(CCC(=O)N2CCC3(CCC(=O)N(CC4CC4)C3)CC2)c1 | -6.95% |
| Cc1noc(C)c1C(=O)NCc1cc[nH]n1 | 11.4% |
| CC(O)CN1CCN(Cc2nnc(C3CC3)o2)CC1 (configuration not stated) | -4% |
| O=C(Cn1ccc2sccc2c1=O)NCCC1=CCCCC1 | -8.78% |
| CCNc1ncc(C(=O)N2CCOC(CCCc3ccccc3)C2)cn1 (configuration not stated) | 14.5% |
| C/N=C1/c2cc3cc(OC)ccc3n2CCN1C | -0.795% |
| c1cncc(COCc2nnc3n2CCN(Cc2ccoc2)C3)c1 | -9.66% |

| Compound | cytotoxicity at 70.5 h |
| --- | --- |
| Cc1n[nH]c(CN2CCN(Cc3ccccc3)[C@@H]3CS(=O)(=O)C[C@@H]32)n1 | 0.0797% |
| CC(=O)Nc1ccc(SCC(O)COCc2ccco2)cc1 (configuration not stated) | -12% |
| Cc1ccc(C(=O)Oc2cc(=O)n3cccc(C)c3n2)cc1 | 15.3% |
| CC1=N[C@@]2(CC[C@@H]3CN(C(=O)NCc4cccc(F)c4)C[C@@H]32)C(=O)N1 | -3.91% |
| COCCN1CCC(CNc2nccc(-c3cnn(C)c3)n2)CC1 | -3.27% |
| CC(NC(=O)NCCCn1cccn1)c1ccc2c(c1)OCCCO2 (configuration not stated) | 13.2% |
| CN(Cc1cccc(F)c1)C(=O)CN1CCCC1CCc1ccccc1 (configuration not stated) | -4.07% |
| CNCCNc1ccc(-c2nc(-c3cccc(OC)c3OC)no2)cn1 | -2.42% |
| c1ccc(CNCC2Cn3nnc(-c4ccncc4)c3CO2)nc1 (configuration not stated) | -4.04% |
| Cc1nc2c(c(NCc3cc4ccccc4s3)n1)CCNCC2 | -5.12% |
| O=S(=O)(NCCn1cc(C2CCCNC2)nn1)c1ccc(Cl)cc1 (configuration not stated) | -9.08% |
| CCC(CC)NC(=O)c1cccnc1N1CCCC1c1ccccn1 (configuration not stated) | 16.4% |
| COCCNC(=O)[C@H]1C[C@@H]2CCN(c3ccncn3)C[C@H]2O1 | 1.69% |
| Cc1ccc(OCCN(C)C(C)c2cccc(S(N)(=O)=O)c2)cc1 (configuration not stated) | 1.1% |
| Cc1cc(N2CCOC(CN)C2)nc(-c2ccccc2)n1 (configuration not stated) | -10.8% |
| CCC(=O)N1CCC(Cc2ccccc2-c2cccc(C)c2)(C(N)=O)C1 (configuration not stated) | 12.2% |
| CCc1cnc2c(c1NCc1ccncc1)c(=O)n(C)c(=O)n2C | -8.17% |
| Cc1cc(C(=O)N2CCCC(C)C2)ccc1NCC(=O)N1CCOCC1 (configuration not stated) | -2.64% |
| Cc1nc(C(=O)N(C)CC(F)(F)C(F)(F)F)c2ccccn12 | -13.5% |
| CC(C)(C)c1ccc(C2(C(=O)NCCCS(C)(=O)=O)CC2)cc1 | -1.31% |
| Cc1c(NCc2ccccc2C#N)cccc1-n1cnnn1 | -3.47% |
| CN(C)C(=O)[C@@H]1CCO[C@@H]2CCN(Cc3ccc4c(c3)OCO4)C[C@@H]21 | -21.3% |
| Cc1ccc2c(n1)N(CC1CC1)CCN(Cc1ccco1)C2 | 1.82% |

| Compound | cytotoxicity at 70.5 h |
| --- | --- |
| O=C(CC1CSc2nccc(=O)n21)NCc1ccco1 (configuration not stated) | -1.36% |
| Cc1nc(C)n(C2CCCN(C(=O)CCOCC(C)C)C2)n1 (configuration not stated) | 11% |
| COc1cc(N2CC3(CCN(c4ncccn4)C3)C2)ncn1 | -9.27% |
| Cn1cc(C2CCCN2C(=O)Cc2coc(-c3ccccc3)n2)cn1 (configuration not stated) | -7.27% |
| Cc1c(Cl)cccc1S(=O)(=O)N1C[C@@H]2CC[C@H](C1)N(C)C2=O | 1.2% |
| Cc1cccnc1N1CCN(C(=O)C(C)n2ccnc2C(C)C)CC1 (configuration not stated) | -2.78% |
| CCCS(=O)(=O)N1CC[C@H]2OCC[C@@]2(c2nnc(C)o2)C1 | 8.91% |
| O=C1CO[C@H]2CCN(C(=O)c3ccc4c(c3)CCCC4)CC[C@@H]2N1 | -8.53% |
| CCn1ccnc1CN(C)c1nc(-c2ccc(Cl)cc2)nc2c1CNC2 | -9.22% |
| c1cc(CN(CCCn2ccnc2)Cc2ccoc2)ccn1 | -4.93% |
| Cn1cccc1C(=O)N1C[C@@H](OCc2cccnc2)[C@H]2OCCC[C@H]21 | 8.24% |
| CC(C)NC1CCc2[nH]c(=O)ccc2C1 (configuration not stated) | -3.78% |
| c1ccc(CN2C[C@H]3CC[C@@H]2CN(Cc2nnc(C4CC4)o2)C3)cc1 | -1.91% |
| CCOC(=O)c1nc(COc2c(C)occc2=O)no1 | -20.5% |
| CCOc1ncc(NC(=O)c2ccco2)c(OCC)n1 | -0.599% |
| CCCNC(=O)C(C)Nc1ccn(Cc2ccccn2)n1 (configuration not stated) | 1.09% |
| CCCC(=O)N1Cc2ccccc2CC2(CCN(C)C2)C1 (configuration not stated) | 22.5% |
| NC(=O)N1CCCN(CCc2nc(-c3cccc(Cl)c3)no2)CC1 | 4.65% |
| CN(C(=O)OC(C)(C)C)C1CCN(C(=O)c2ccc(Cl)o2)C1 (configuration not stated) | -3.64% |
| CCC(C)NC(=O)c1cccc(CNC(=O)CC(F)(F)F)c1 (configuration not stated) | -6.23% |
| CSCc1noc(CNC(=O)C2CCN(C(=O)C3CC3)CC2)n1 | -17.4% |
| CC(C)N(C)Cc1cnc2n1CCN(C(=O)NC1CCCC1)C2 | -9.47% |
| CCn1cc(NC(=O)C(C)n2ncc(Cl)c2C)c(C(=O)OC)n1 (configuration not stated) | -3.71% |

| Compound | cytotoxicity at 70.5 h |
| --- | --- |
| O=C(COC[C@@H]1CC[C@H]2[C@H](CCN2Cc2ccco2)O1)N1CCCC1 | 24.3% |
| COc1ccc(N2CCN(C(=O)OC(C)(C)C)C(C(=O)O)C2)cc1 (configuration not stated) | -0.702% |
| CCS(=O)(=O)N1CC[C@@H]2[C@H](CC1)N(Cc1cccc(C)n1)CCS2(=O)=O | 2.24% |
| COc1ccc(C2=CCN(C(=O)CN(C)S(C)(=O)=O)CC2)cc1 | -10.2% |
| COc1ccc(Cl)cc1-c1nc(N)nc(N(C)C)n1 | -6.28% |
| CCn1cc(CN2CCCN(C(=O)c3ccccc3OC)CC2)cn1 | -15.6% |
| CCNC(=O)N1CCC(Nc2nccc(NCC)n2)CC1 | -11.4% |
| Cc1cc(F)ccc1N1CCCC(NC(=O)CCCn2ccnc2)C1 (configuration not stated) | -26% |
| c1ccc(-c2nc(CNC3CCc4ncnn4C3)cs2)cc1 (configuration not stated) | 0.00764% |
| Cc1nc(-c2ccccc2)n(CC(=O)N(C(C)C)C(C)C)n1 | 2.39% |
| Cc1cc(C)nc(Nc2cc(C3CCCN(C)C3)nc(C)n2)n1 (configuration not stated) | -27.7% |
| COc1ccc(C2=CCN(C(=O)C3CCN(C)C(=O)C3)CC2)cc1 (configuration not stated) | -8.88% |
| Cc1nnc(NC(=O)CN2CCCC(c3ccn[nH]3)C2)s1 (configuration not stated) | 18.6% |
| Cc1noc(C2CCC3(CCN(C(=O)c4cnn(C)c4)CC3)O2)n1 (configuration not stated) | -10.3% |
| O=C(C1CN(CC2CC2)CC12CCOCC2)N1CCCC1 (configuration not stated) | 16.3% |
| Cc1ccccc1C(=O)N1CCC2(CCCN2CCN(C)C)CC1 | -9.86% |
| COCc1noc(CCNC(=O)c2ccc(C3CCCO3)s2)n1 (configuration not stated) | 8.28% |
| Cc1nnc(N2CCNCC2)c(C(N)=O)c1C | -16.9% |
| CN(CCc1ccccc1)c1cnn(CC2COCCO2)c(=O)c1 (configuration not stated) | -4.1% |
| CN(C)C(=O)CO[C@H]1CO[C@@]2(CCN(S(C)(=O)=O)C2)C1 | -6.98% |
| Cc1ccc(C(=O)NS(=O)(=O)c2ccccc2Br)c(=O)[nH]1 | -7.74% |
| Cc1ccc(S(=O)(=O)Nc2cnn(C3CCOCC3)c2)cc1C | 2.28% |
| COc1cccc(OCCNCc2ccccc2)c1 | -7.2% |

| Compound | cytotoxicity at 70.5 h |
| --- | --- |
| COc1ccc(-c2nc(C#N)c(N(C)C)o2)cc1S(=O)(=O)N(C)C | -11.8% |
| COc1ccccc1C1CCN(C(=O)CN2C(=O)OC(C)(C)C2=O)CC1 | -6.76% |
| Cc1nn(C)cc1-c1cc(C(=O)N2CCc3ncc(Cl)cc3C2)no1 | 0.792% |
| Cc1ccccc1SC1CCN(C(=O)[C@@H]2C[C@@H](N)CN2)CC1 | -2.11% |
| CNC(=O)CN1CCOCC2(CCCN(Cc3ccoc3)C2)C1 (configuration not stated) | -8.87% |
| CCc1cccc(OCC(=O)NC(C)c2nnc3n2CCC3)c1 (configuration not stated) | -3.83% |
| COCCc1noc(CN(C)c2nc(C)nc(C)c2C)n1 | 25.3% |
| Cn1cc(CN2CCn3c(CNC(=O)c4cccn4C)cnc3C2)cn1 | 4.31% |
| CC(C)C(CNC(=O)CCn1cncn1)N1CCc2ccccc2C1 (configuration not stated) | -6.95% |
| CN(Cc1ccco1)C(=O)CN1CCN(C)c2ccccc2C1 | -3% |
| CCN1CCCC(c2cc(Nc3cnccn3)nc(C)n2)C1 (configuration not stated) | -6.21% |
| CCOCCOC(C)C(=O)Nc1nccn1Cc1ccccc1 (configuration not stated) | -15% |
| O=C(C1CC1)N1CCC(c2nc(O)c3c(n2)CN(C2CCCC2)CC3)C1 (configuration not stated) | 9.71% |
| COCCN(Cc1ccccn1)C(=O)CC1OCCc2ccccc21 (configuration not stated) | -6.98% |
| CC(C)(C)c1coc([C@@H]2COCCN2Cc2c[nH]c3ccccc23)n1 | 1.59% |
| N#Cc1cccc(CNC(=O)NC2CCN(CC(F)F)CC2)c1 | 17.7% |
| COc1cccn(CC(=O)N2CCCC3(CCCCC3)C2)c1=O | -4.6% |
| CCc1n[nH]c(C2CN(C(=O)c3ccnc(C4CC4)n3)CCO2)n1 (configuration not stated) | -5.63% |
| CCc1ncc(C(=O)N2CC[C@@H]3CC[C@H](C2)N3C)cn1 | -14% |
| CNC(=O)CN1CCOCC12CCN(Cc1ccncc1)CC2 | -16.2% |
